Laboratory results taken from ChEMBL document CHEMBL1140860, “Synthesis and evaluation of dihydroartemisinin and dihydroartemisitene acetal dimers showing anticancer and antiprotozoal activity” (Bioorg Med Chem, 2009).
pIC50: −log10 of the molar value.

Tests used:
[1] = Growth inhibition of human […] cells after 48 hrs by sulforhodamine B assay; type: functional
[2] = system: U-251; test: Growth inhibition of human U251 cells after 48 hrs by sulforhodamine B assay; type: functional; conditions: U-251, 48 h
[3] = system: MCF7; test: Growth inhibition of human MCF7 cells after 48 hrs by sulforhodamine B assay; type: functional; conditions: MCF7, 48 h
[4] = system: UO-31; test: Growth inhibition of human UO31 cells after 48 hrs by sulforhodamine B assay; type: functional; conditions: UO-31, 48 h
[5] = system: NCI/ADR-RES; test: Growth inhibition of human NCI/ADR-RES cells after 48 hrs by sulforhodamine B assay; type: functional
[6] = Selectivity index, ratio of TC50 for african green monkey (Cercopithecus aethiops) Vero cells to IC50 for chloroquine-sensitive Plasmodium falciparum D6; type: toxicity, cell-based
[7] = system: A549; test: Growth inhibition of human A549 cells after 48 hrs by sulforhodamine B assay; type: functional; conditions: A549, 48 h
[8] = system: K562; test: Growth inhibition of human K562 cells after 48 hrs by sulforhodamine B assay; type: functional; conditions: K562, 48 h
[9] = system: OVCAR-5; test: Growth inhibition of human OVCAR5 cells after 48 hrs by sulforhodamine B assay; type: functional; conditions: OVCAR-5, 48 h
[10] = system: HOP-92; test: Growth inhibition of human HOP92 cells after 48 hrs by sulforhodamine B assay; type: functional; conditions: HOP-92, 48 h
[11] = system: KM12; test: Growth inhibition of human KM12 cells after 48 hrs by sulforhodamine B assay; type: functional; conditions: KM12, 48 h
[12] = system: 786-0; test: Growth inhibition of human 786-0 cells after 48 hrs by sulforhodamine B assay; type: functional; conditions: 786-0, 48 h
[13] = system: NCI-H322M; test: Growth inhibition of human NCI-H322M cells after 48 hrs by sulforhodamine B assay; type: functional
[14] = system: MDA-MB-435; test: Growth inhibition of human MDA-MB-435 cells after 48 hrs by sulforhodamine B assay; type: functional; conditions: MDA-MB-435, 48 h
[15] = system: HCT-15; test: Growth inhibition of human HCT15 cells after 48 hrs by sulforhodamine B assay; type: functional; conditions: HCT-15, 48 h
[16] = system: HOP-62; test: Growth inhibition of human HOP62 cells after 48 hrs by sulforhodamine B assay; type: functional; conditions: HOP-62, 48 h
[17] = system: M14; test: Growth inhibition of human M14 cells after 48 hrs by sulforhodamine B assay; type: functional; conditions: M14, 48 h
[18] = system: NCI-H23; test: Growth inhibition of human NCI-H23 cells after 48 hrs by sulforhodamine B assay; type: functional; conditions: NCI-H23, 48 h
[19] = Cytotoxicity against african green monkey Vero cells after 48 hrs by neutral red assay; type: cell-based; conditions: chlorocebus sabaeus, read-out: TC50
[20] = system: HCC 2998; test: Growth inhibition of human HCC2998 cells after 48 hrs by sulforhodamine B assay; type: functional; conditions: HCC 2998, 48 h
[21] = system: SNB-19; test: Growth inhibition of human SNB19 cells after 48 hrs by sulforhodamine B assay; type: functional; conditions: SNB-19, 48 h
[22] = system: NCI-H522; test: Growth inhibition of human NCI-H522 cells after 48 hrs by sulforhodamine B assay; type: functional; conditions: NCI-H522, 48 h
[23] = Growth inhibition of human Hs 578T cells after 48 hrs by sulforhodamine B assay; type: functional
[24] = system: HT-29; test: Growth inhibition of human HT-29 cells after 48 hrs by sulforhodamine B assay; type: functional; conditions: HT-29, 48 h
[25] = system: LOX IMVI; test: Growth inhibition of human LOXIMVI cells after 48 hrs by sulforhodamine B assay; type: functional
[26] = system: ACHN; test: Growth inhibition of human ACHN cells after 48 hrs by sulforhodamine B assay; type: functional
[27] = system: EKVX; test: Growth inhibition of human EKVX cells after 48 hrs by sulforhodamine B assay; type: functional
[28] = system: OVCAR-8; test: Growth inhibition of human OVCAR8 cells after 48 hrs by sulforhodamine B assay; type: functional; conditions: OVCAR-8, 48 h
[29] = system: CCRF-CEM; test: Growth inhibition of human CCRF-CEM cells after 48 hrs by sulforhodamine B assay; type: functional
[30] = system: HCT-116; test: Growth inhibition of human HCT116 cells after 48 hrs by sulforhodamine B assay; type: functional; conditions: HCT-116, 48 h
[31] = system: Plasmodium falciparum; test: Antimalarial activity after 72 hrs against chloroquine-resistant Plasmodium falciparum W2 infected erythrocytes by LDH assay; type: functional, organism-based; conditions: W2, 72 h
[32] = system: PC-3; test: Growth inhibition of human PC3 cells after 48 hrs by sulforhodamine B assay; type: functional; conditions: PC-3, 48 h
[33] = system: TK-10; test: Growth inhibition of human TK10 cells after 48 hrs by sulforhodamine B assay; type: functional; conditions: TK-10, 48 h
[34] = system: IGROV-1; test: Growth inhibition of human IGROV1 cells after 48 hrs by sulforhodamine B assay; type: functional; conditions: IGROV-1, 48 h
[35] = system: SNB-75; test: Growth inhibition of human SNB75 cells after 48 hrs by sulforhodamine B assay; type: functional; conditions: SNB-75, 48 h
[36] = system: NCI-H460; test: Growth inhibition of human NCI-H460 cells after 48 hrs by sulforhodamine B assay; type: functional; conditions: NCI-H460, 48 h
[37] = system: A498; test: Growth inhibition of human A498 cells after 48 hrs by sulforhodamine B assay; type: functional; conditions: A498, 48 h
[38] = system: BT-549; test: Growth inhibition of human BT549 cells after 48 hrs by sulforhodamine B assay; type: functional; conditions: BT-549, 48 h
[39] = system: UACC-62; test: Growth inhibition of human UACC62 cells after 48 hrs by sulforhodamine B assay; type: functional; conditions: UACC-62, 48 h
[40] = system: T47D; test: Growth inhibition of human T47D cells after 48 hrs by sulforhodamine B assay; type: functional
[41] = system: COLO 205; test: Growth inhibition of human COLO205 cells after 48 hrs by sulforhodamine B assay; type: functional; conditions: COLO 205, 48 h
[42] = system: SK-MEL-28; test: Growth inhibition of human SK-MEL-28 cells after 48 hrs by sulforhodamine B assay; type: functional; conditions: SK-MEL-28, 48 h
[43] = system: HL-60; test: Growth inhibition of human HL-60(TB) cells after 48 hrs by sulforhodamine B assay; type: functional; conditions: HL-60, 48 h
[44] = system: MDA-MB-231; test: Growth inhibition of human MDA-MB-231 cells after 48 hrs by sulforhodamine B assay; type: functional; conditions: MDA-MB-231, 48 h
[45] = system: NCI-H226; test: Growth inhibition of human NCI-H226 cells after 48 hrs by sulforhodamine B assay; type: functional; conditions: NCI-H226, 48 h
[46] = system: CAKI-1; test: Growth inhibition of human Caki1 cells after 48 hrs by sulforhodamine B assay; type: functional; conditions: CAKI-1, 48 h
[47] = system: Plasmodium falciparum; test: Antimalarial activity after 72 hrs against chloroquine-sensitive Plasmodium falciparum D6 infected in erythrocytes by LDH assay; type: functional, organism-based; conditions: D6, 72 h
[48] = system: SN12C; test: Growth inhibition of human SN12C cells after 48 hrs by sulforhodamine B assay; type: functional
[49] = system: SR; test: Growth inhibition of human SR cells after 48 hrs by sulforhodamine B assay; type: functional
[50] = system: SK-MEL-5; test: Growth inhibition of human SK-MEL-5 cells after 48 hrs by sulforhodamine B assay; type: functional; conditions: SK-MEL-5, 48 h

Q: Which GI50 [1] does the source give for `C[C@H]1[C@@H](OCCO[C@H]2O[C@@H]3O[C@@]4(C)CC[C@H]5[C@H](C)CC[C@@H]([C@H]2C)[C@@]35OO4)O[C@@H]2O[C@@]3(C)CC[C@H]4[C@H](C)CC[C@@H]1[C@@]24OO3` here?
A: < 10 nM

Q: And the GI50 [2]?
A: 267 nM

Q: And the GI50 [3]?
A: 34 nM

Q: What about the GI50 [4] of the same molecule?
A: 469 nM

Q: What about the GI50 [5] of the same molecule?
A: 243 nM

Q: And the selectivity ratio [6]?
A: > 48

Q: And the GI50 [7]?
A: 63 nM

Q: What about the GI50 [8] of the same molecule?
A: 14 nM

Q: What about the GI50 [9] of the same molecule?
A: 83 nM

Q: What about the GI50 [10] of the same molecule?
A: 149 nM

Q: What about the GI50 [11] of the same molecule?
A: 81 nM

Q: And the GI50 [12]?
A: 305 nM

Q: And the GI50 [13]?
A: > 100 µM

Q: And the GI50 [14]?
A: 572 nM

Q: And the GI50 [15]?
A: 19 nM

Q: And the GI50 [16]?
A: 107 nM

Q: And the GI50 [17]?
A: 183 nM

Q: And the GI50 [18]?
A: 1150 nM

Q: What about the CC50 at 48 h [19] of the same molecule?
A: > 80 µM

Q: What about the GI50 [20] of the same molecule?
A: 6.92 µM

Q: What about the GI50 [21] of the same molecule?
A: > 100 µM

Q: What about the GI50 [22] of the same molecule?
A: 69 nM

Q: What about the GI50 [23] of the same molecule?
A: 656 nM

Q: What about the GI50 [24] of the same molecule?
A: 41 nM

Q: And the GI50 [25]?
A: 72 nM

Q: And the GI50 [26]?
A: 257 nM

Q: What about the GI50 [27] of the same molecule?
A: 146 nM

Q: What about the GI50 [28] of the same molecule?
A: 179 nM

Q: And the GI50 [29]?
A: 68 nM

Q: And the GI50 [30]?
A: 26 nM

Q: What about the pIC50 [31] of the same molecule?
A: 5.92

Q: What about the GI50 [32] of the same molecule?
A: 10 nM

Q: And the GI50 [33]?
A: 206 nM

Q: What about the GI50 [34] of the same molecule?
A: 65 nM

Q: What about the GI50 [35] of the same molecule?
A: 887 nM

Q: And the GI50 [36]?
A: 150 nM

Q: And the GI50 [37]?
A: 77.2 µM

Q: And the GI50 [38]?
A: 14.3 µM

Q: What about the GI50 [39] of the same molecule?
A: 343 nM

Q: What about the GI50 [40] of the same molecule?
A: 15 nM

Q: What about the GI50 [41] of the same molecule?
A: 490 nM

Q: What about the GI50 [42] of the same molecule?
A: 32.5 µM

Q: And the GI50 [43]?
A: 29 nM

Q: And the GI50 [44]?
A: 15 µM

Q: And the GI50 [45]?
A: 321 nM

Q: What about the GI50 [46] of the same molecule?
A: 297 nM

Q: And the pIC50 [47]?
A: 5.77

Q: What about the GI50 [48] of the same molecule?
A: 540 nM

Q: What about the GI50 [49] of the same molecule?
A: 77 nM

Q: What about the GI50 [50] of the same molecule?
A: 316 nM
